# Measurements taken from US20120029187A1, “HALOALKYLSULFONANILIDE DERIVATIVE” (Nissan Chemical Industries, Ltd., priority 2009, published 2012).
# Assays:
# Format in all cases: in vivo
# barnyardgrass [1] = test: Test Example 2: herbicidal effects during the vegetation period under submerged conditions; settings: treatment during the vegetation period under submerged conditions; dose 2.52 g/a
# In short: (§1)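 Barnyardgrass, bulrush and ducksalad were co-sown in alluvial soil flooded to 4 cm and grown in a greenhouse at 25 to 30° C. At the 1- or 2-leaf stage, water-diluted emulsifiable concentrates went onto the water surface at set doses (g/a). Herbicidal effect was scored three weeks later on a graded scale.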
# ducksalad [2] = test: as above; settings: treatment during the vegetation period under submerged conditions; dose 2.52 g/a
# In short: as §1
# bulrush [3] = test: as above; settings: treatment during the vegetation period under submerged conditions; dose 2.52 g/a
# In short: as §1
# transplanted rice = test: Test Example 1: preemergence treatment under submerged conditions, effect on crop; settings: dose 2.52 g/a
# In short: (§2)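 Scoring 0 (<5% mortality) to 5 (≥90%) was done three weeks after preemergence application to the water surface of submerged (4 cm) alluvial soil, doses given as g per are. Weeds were seeded and 2.5-leaf rice transplanted on the treatment day; greenhouse at 25–30 °C.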
# wild oat [4] = test: Test Example 3: herbicidal effects in soil treatment; settings: dose 3.2 g/a
# In short: (§3)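 Seeds were sown in sterilized diluvial soil and covered with about 1.5 cm of soil. Compounds, formulated as emulsifiable concentrates and diluted with water, were sprayed evenly over the soil surface at set doses in g/a. Herbicidal effect was scored on a rating scale three weeks later.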
# barnyardgrass [5] = test: as above; settings: dose 3.2 g/a
# In short: as §3
# velvetleaf [6] = test: as above; settings: dose 3.2 g/a
# In short: as §3
# large crabgrass [7] = test: as above; settings: dose 3.2 g/a
# In short: as §3
# Italian ryegrass [8] = test: as above; settings: dose 3.2 g/a
# In short: as §3
# giant foxtail [9] = test: as above; settings: dose 3.2 g/a
# In short: as §3
# common chickweed [10] = test: as above; settings: dose 3.2 g/a
# In short: as §3
# redroot pigweed [11] = test: as above; settings: dose 3.2 g/a
# In short: as §3
# water foxtail [12] = test: as above; settings: dose 3.2 g/a
# In short: as §3
# common lambsquater [13] = test: as above; settings: dose 3.2 g/a
# In short: as §3
# posumbu knotweed [14] = test: as above; settings: dose 3.2 g/a
# In short: as §3
# common ragweed [15] = test: as above; settings: dose 3.2 g/a
# In short: as §3
# wild oat [16] = test: Test Example 4: herbicidal effect in foliage treatment; settings: dose 3.2 g/a, three weeks after the application
# In short: (§4)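 Doses are given in grams per are of applied compound, sprayed as water-diluted emulsifiable concentrate onto foliage of 14-day-old plants grown at 25 to 30° C. Herbicidal activity was assessed visually on a rating scale after three weeks.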
# beadstraw = test: as above; settings: dose 3.2 g/a, three weeks after the application
# In short: as §4
# barnyardgrass [17] = test: as above; settings: dose 3.2 g/a, three weeks after the application
# In short: as §4
# velvetleaf [18] = test: as above; settings: dose 3.2 g/a, three weeks after the application
# In short: as §4
# large crabgrass [19] = test: as above; settings: dose 3.2 g/a, three weeks after the application
# In short: as §4
# Italian ryegrass [20] = test: as above; settings: dose 3.2 g/a, three weeks after the application
# In short: as §4
# giant foxtail [21] = test: as above; settings: dose 3.2 g/a, three weeks after the application
# In short: as §4
# common chickweed [22] = test: as above; settings: dose 3.2 g/a, three weeks after the application
# In short: as §4
# redroot pigweed [23] = test: as above; settings: dose 3.2 g/a, three weeks after the application
# In short: as §4
# water foxtail [24] = test: as above; settings: dose 3.2 g/a, three weeks after the application
# In short: as §4
# common lambsquater [25] = test: as above; settings: dose 3.2 g/a, three weeks after the application
# In short: as §4
# posumbu knotweed [26] = test: as above; settings: dose 3.2 g/a, three weeks after the application
# In short: as §4
# common ragweed [27] = test: as above; settings: dose 3.2 g/a, three weeks after the application
# In short: as §4
# barnyardgrass [28] = test: Test Example 1: herbicidal effects in preemergence treatment under submerged conditions; settings: dose 2.52 g/a
# In short: as §2
# ducksalad [29] = test: as above; settings: dose 2.52 g/a
# In short: as §2
# bulrush [30] = test: as above; settings: dose 2.52 g/a
# In short: as §2
compound,measurement,setting,value
CCN1COCN(Cc2ccccc2N(C(=O)OCCCl)S(=O)(=O)C(F)(F)F)C1=O [IV-7],"A: barnyardgrass, herbicidal effect (evaluation scale 0-5)",barnyardgrass [1],5 (mortality of 90% or above (nearly complete death))
same,"C: ducksalad, herbicidal effect (evaluation scale 0-5)",ducksalad [2],5 (mortality of 90% or above (nearly complete death))
same,"B: bulrush, herbicidal effect (evaluation scale 0-5)",bulrush [3],5 (mortality of 90% or above (nearly complete death))
same,"a: transplanted rice, effect on crop (evaluation scale 0-5)",transplanted rice,0 (mortality of less than 5% (almost ineffective))
same,"herbicidal effect, F: wild oat",wild oat [4],1 (mortality of at least 5% and less than 20%)
same,"herbicidal effect, A: barnyardgrass",barnyardgrass [5],5 (mortality of 90% or above (nearly complete death))
same,"herbicidal effect, I: velvetleaf",velvetleaf [6],5 (mortality of 90% or above (nearly complete death))
same,"herbicidal effect, D: large crabgrass",large crabgrass [7],5 (mortality of 90% or above (nearly complete death))
same,"herbicidal effect, H: Italian ryegrass",Italian ryegrass [8],4 (mortality of at least 70% and less than 90%)
same,"herbicidal effect, E: giant foxtail",giant foxtail [9],3 (mortality of at least 40% and less than 70%)
same,"herbicidal effect, N: common chickweed",common chickweed [10],4 (mortality of at least 70% and less than 90%)
same,"herbicidal effect, K: redroot pigweed",redroot pigweed [11],1 (mortality of at least 5% and less than 20%)
same,"herbicidal effect, G: water foxtail",water foxtail [12],5 (mortality of 90% or above (nearly complete death))
same,"herbicidal effect, L: common lambsquater",common lambsquater [13],4 (mortality of at least 70% and less than 90%)
same,"herbicidal effect, M: posumbu knotweed",posumbu knotweed [14],0 (mortality of less than 5% (almost ineffective))
same,"herbicidal effect, J: common ragweed",common ragweed [15],0 (mortality of less than 5% (almost ineffective))
same,"F: wild oat, herbicidal effect",wild oat [16],0 (mortality of less than 5% (almost ineffective))
same,"O: beadstraw, herbicidal effect",beadstraw,3 (mortality of at least 40% and less than 70%)
same,"A: barnyardgrass, herbicidal effect",barnyardgrass [17],4 (mortality of at least 70% and less than 90%)
same,"I: velvetleaf, herbicidal effect",velvetleaf [18],4 (mortality of at least 70% and less than 90%)
same,"D: large crabgrass, herbicidal effect",large crabgrass [19],4 (mortality of at least 70% and less than 90%)
same,"H: Italian ryegrass, herbicidal effect",Italian ryegrass [20],3 (mortality of at least 40% and less than 70%)
same,"E: giant foxtail, herbicidal effect",giant foxtail [21],4 (mortality of at least 70% and less than 90%)
same,"N: common chickweed, herbicidal effect",common chickweed [22],4 (mortality of at least 70% and less than 90%)
same,"K: redroot pigweed, herbicidal effect",redroot pigweed [23],0 (mortality of less than 5% (almost ineffective))
same,"G: water foxtail, herbicidal effect",water foxtail [24],5 (mortality of 90% or above (nearly complete death))
same,"L: common lambsquater, herbicidal effect",common lambsquater [25],4 (mortality of at least 70% and less than 90%)
same,"M: posumbu knotweed, herbicidal effect",posumbu knotweed [26],0 (mortality of less than 5% (almost ineffective))
same,"J: common ragweed, herbicidal effect",common ragweed [27],3 (mortality of at least 40% and less than 70%)
same,"A: barnyardgrass, herbicidal effect (evaluation scale 0-5)",barnyardgrass [28],5 (mortality of 90% or above (nearly complete death))
same,"C: ducksalad, herbicidal effect (evaluation scale 0-5)",ducksalad [29],4 (mortality of at least 70% and less than 90%)
same,"B: bulrush, herbicidal effect (evaluation scale 0-5)",bulrush [30],5 (mortality of 90% or above (nearly complete death))
